# From US8709764B2, “Enzymatic demethylation of flavonoids” (Universiteit Gent, priority 2005, dated 2014)
# Tests used:
# human fecal cultures = assay: Incubation of IX with human fecal cultures (E-L; 51 fecal samples) for 3 days; type: in vitro ADME
# Description: Fecal slurries of 20% (w/v) fresh fecal samples were prepared by homogenizing the feces with phosphate buffered saline (0.1 M, pH 7) containing 1 g/l sodiumthioglycolate as reducing agent. The particulate material was removed by centrifugation (1 min, 500×g). The supernatant is hereafter called “the culture”.
# But not all cultures were able to perform this reaction. Therefore, the remaining cultures E-L (10% (v/v)) were incubated for 3 days in Brain Heart Infusion broth (with 0.5 g/l cystein-HCl) under anaerobic conditions with 25 mg/l IX (FIG. 4).
# To further investigate these inter-individual differences, a total of 51 fecal samples were incubated for 3 days in Brain Heart Infusion broth (with 0.5 g/l cystein-HCl) under anaerobic conditions, containing 25 mg/l IX (FIG. 5). The results are presented as % 8-PN production relative to the incubated IX concentration and samples were ordered by increasing 8-PN production capacity.
# [1] = system: selected strain Eubacterium limosum; assay: Fed batch fermentation of IX with selected Eubacterium limosum strain; type: in vitro ADME; settings: fermentor effluent
# Description: A fed batch fermentation experiment was designed to use a selected strain Eubacterium limosum as obtained above, to convert methylated prenylflavonoids in a fermentation setting. Fermentation was performed in a Braun Biostat® M fermentor (2 l vessel), filled with 1.5 L Brain Heart Infusion broth (with 0.5 g/l cystein-HCl). Subsequently, the fermentor was sterilized by autoclaving it for 30 min at 121° C. Before inoculation, the fermentor was made anaerobic by flushing the system for 1 h with nitrogen gas. After this, the fermentor was inoculated with a 2-days old E. limosum culture and 25 mg/L IX was added to the fermentation liquid. The fermentation was performed at 37° C. for 2 weeks, without pH control. From day 1 on, three times/day 200 ml anaerobic Brain Heart Infusion broth (with 0.5 g/l cystein-HCl), containing 25 mg/L IX was dosed to the reactor at 10 ml/min and simultaneously […] fermentor content was removed from the system. A 10 ml sample was taken from the effluent, for chemical analysis. This was done at day 0, 1, 2 and afterwards every 2 days. Data were as % conversion (8-PN/(IX+8-PN)). A conversion of 0% (day 0), 43% (day 1) and 100% (day 2 and following days), of IX into 8-PN was obtained.
# [2] = system: fecal culture B supplemented with E. limosum; assay: Supplementation of selected E. limosum strain to non-converting fecal culture B incubated with IX; type: in vitro ADME, human
# Description: The most efficient E. limosum strain, obtained from the selection experiment in example 2, was supplemented to the originally non-converting culture B of example 1, to examine the capacity of this strain to initiate the production of 8-PN in the complex environment of a fecal suspension. The strain was added to the culture in proportions ranging from 0% up to 100% (v/v). This mixture was incubated with 10% (v/v) of 25 mg/L IX for a period of seven days in Brain Heart Infusion broth (with 0.5 g/l cystein-HCl) under anaerobic conditions. The concentration of 8-PN was monitored every two days (FIG. 7).
# [3] = system: intestinal microbial communities PF+ and PF−; assay: Simulator of the Human Intestinal Microbial Ecosystem (SHIME) dosed with IX; type: in vitro ADME
# Source text: The SHIME consists of a succession of five reactors that represent the different parts of the human gastrointestinal tract. The first two reactors (stomach [reactor 1] and small intestine [reactor 2]) are of the fill-and-draw principle to simulate different steps in food uptake and digestion, with peristaltic pumps adding a defined amount of SHIME feed (3 times/day) and pancreatic and bile liquid to the stomach and duodenum compartment and emptying the respective reactors after specified intervals. The last three compartments (resp. ascending [reactor 3], transverse [reactor 4] and descending colon [reactor 5]) are continuously stirred reactors with constant volume and pH control. Retention time and pH of the different vessels were chosen in order to resemble in vivo conditions in the different parts of the gastrointestinal tract. The passage of food in the small intestine was simulated in reactor 2 by the addition of 60 ml artificial pancreatic and bile liquid, pancreatin and NaHCO3. The temperature of the system was kept at 37° C. by a thermostat and the system was kept anaerobic by flushing it with N2 for 15 min every day. Inoculum was prepared from faecal matter as described in De Boever et al. (2000) J. Nutrition 130, 2599-2606. Reactor 3, 4, and 5 were filled with nutritional medium and pH was adjusted to the respective pH range. Finally, 50 ml inoculum was added to the last three reactors.
# For the present experiment, two of the above described systems were combined as two completely separate reactors, which are driven by the same pumps (pumps with two pump heads, allowing to dose exactly the same amounts of liquids to both systems), have identical pH and temperature control and which receive the same liquid food. This way, all parameters are perfectly controlled and identical, except for the intestinal microbial communities in the 2 systems which can be introduced separately. In this case we introduced a community which was capable to activate methylated prenylflavonoids (PF+) and one which could not (PF−). After a two-week stabilization period in which normal SHIME feed was dosed, 25 mg/L IX was dosed to the SHIME feed for 4 weeks (day 15-44). In the last two weeks the selected Eubacterium limosum strain of example 2, was also administered to the first colon compartment, to simulate the application of the strain as a probiotic (day 30-44).
compound,measurement,setting,value
"COc1cc(O)c(CC=C(C)C)c2c1C(=O)C[C@@H](c1ccc(O)cc1)O2 [IX, 5-O-methyl-8-prenylnaringenin]",Microbial O-demethylation of IX,"human fecal cultures; fecal cultures E-L, 25 mg/l IX, 3 days anaerobic","only detected in samples E, J and K"
same,Share of tested fecal samples in which activation of IX occurred,human fecal cultures; fecal samples A-L,only a third of the tested samples
same,% conversion (8-PN/(IX+8-PN)),[1]; day 0,0%
same,% conversion (8-PN/(IX+8-PN)),[1]; day 1,43%
same,% conversion (8-PN/(IX+8-PN)),[1]; day 2 and following days,100%
same,Conversion of IX into 8-PN,"[2]; 1% supplementation of E. limosum, after one day",half of the dosed IX was already transformed into 8-PN
same,Conversion of IX into 8-PN,[2]; equal amount of E. limosum culture and fecal sample (100% in FIG. 7),complete conversion of IX into 8-PN
same,Conversion of IX into 8-PN,"[3]; PF+ compartment, after supplementing the E. limosum strain (from day 30)",the activation potential increased
same,Conversion of IX into 8-PN,"[3]; PF+ compartment, only IX administered (day 15-30)",activation of methoxylated prenylflavonoids was noted in the distal colon parts
same,Conversion of IX into 8-PN,"[3]; PF− compartment, after supplementing the E. limosum strain (from day 30)",production of the estrogenically active 8-PN was detected in the distal colon part
same,Conversion of IX into 8-PN,"[3]; PF− compartment, only IX administered (day 15-30)",no conversion occurred
